Results as given in US20240197742A1, “Therapeutic Combinations of a CD19 Inhibitor and a BTK Inhibitor” (Acerta Pharma B.V., priority 2015, published 2024).
“Also recorded” adds a separate entry of the source.

What was measured:
regulatory T cell (Treg) = assay: Treg development from enriched CD4+ T cells; assay type: cell-based; conditions: anti-TCRβ plus anti-CD28, skewing cytokines, 4 days
Description: (§1) Enriched CD4^+ T cells are plated on 24-well culture dishes that have been precoated 2 hr with 250 μL anti-TCRβ (0.5 μg/mL) plus anti-CD28 (5 μg/mL) at 37° C. in PBS. The cells are then supplemented with media containing BTK inhibitors along with the skewing cytokines as indicated in the following. The Th17 and Treg cultures are grown for 4 days before analysis. The cells are maintained for an additional 3 days with skewing cytokines (Th17; 20 ng/mL IL-6, 0.5 ng/mL TGF-β, 5 μg/mL IL-4, 5 μg/mL IFN-γ and Treg; 0.5 ng/mL TGF-β, 5 μg/mL IL-4, 5 μg/mL IFN-γ) and are supplemented with IL2 as a growth factor.

ID8 ovarian cancer = assay: ID8 syngeneic orthotropic ovarian cancer murine model; assay type: in vivo, mouse; conditions: 15 mg/kg/BID given orally
From the text: Human ovarian cancer models, including the ID8 syngeneic orthotropic ovarian cancer model and other animal models, are described in Fong and Kakar, J. Ovarian Res. 2009, 2, 12; Greenaway, et al., Gynecol. Oncol. 2008, 108, 385-94; Urzua, et al., Tumour Biol. 2005, 26, 236-44; Janat-Amsbury, et al., Anticancer Res. 2006, 26, 3223-28; Janat-Amsbury, et al., Anticancer Res. 2006, 26, 2785-89. […] The results of the study are shown in FIG. 13, FIG. 14, FIG. 15, FIG. 16, FIG. 17, FIG. 18, FIG. 19, and FIG. 20.

[1] = tested on: KPC derived mouse pancreatic cancer cells; assay: Orthotopic pancreatic cancer model; assay type: in vivo; conditions: Formula (2) 15 mg/kg/BID given orally
Description: In this study, KPC derived mouse pancreatic cancer cells (KrasG12D;Trp53R172H;Pdx1-Cre) were injected into the pancreases.
Single cell suspensions from tumor samples. Mouse tumor tissue was collected and stored in PBS/0.1% soybean trypsin inhibitor prior to enzymatic dissociation. Samples were finely minced with a scissors and mouse tissue was transferred into DMEM containing 1.0 mg/mL collagenase IV (Gibco), 0.1% soybean trypsin inhibitor, and 50 U/ml DNase (Roche) and incubated at 37° C. for 30 min. with constant stirring while human tissue was digested in 2.0 mg/ml collagenase IV, 1.0 mg/ml hyluronidase, 0.1% soybean trypsin inhibitor, and 50 U/ml DNase for 45 minutes. Suspensions were filtered through a 100 micron filter and washed with FACS buffer (PBS/0.5% BSA/2.0 mM EDTA) prior to staining. Two million total cells were stained with antibodies as indicated. Intracellular detection of FoxP3 was achieved following permeabilization with BD Perm Buffer III (BD Biosciences) and eBioscience Fix/Perm respectively. Following surface staining, samples were acquired on a BD Fortessa and analyzed using FlowJo (Treestar) software.

NK cells [2] = assay: Antibody-dependent NK cell-mediated degranulation (CD107a); assay type: cell-based, human
Description: Lytic granule release was determined as follows. NK cells from healthy donors were enriched and cultured in the presence of target cells, monoclonal antibodies and test articles as described above. After 4 hours, the cultures were harvested and cells were pelleted, washed, and then stained for flow cytometry evaluation. Degranulation was evaluated via by flow cytometery by externalization of CD107a, a protein normally present on the inner leaflet of lytic granules, and gating on NK cells (CD3-CD16^+ lymphocytes). The percentage of CD107α positive NK cells was quantified by comparison with a negative control (isotype control, unstained cells/FMO). Control cultures (NK cells cultured without target cells, or NK, target cell co-cultures in the absence of appropriate monoclonal antibody) were also evaluated; all experiments were performed in triplicate.

primary CLL cells = assay: ADCC chromium release assay, primary CLL targets; assay type: cell-based, human; conditions: 1 μM; E:T 25:1; variable rituximab concentrations
Description: All in vitro experiments were performed in triplicate.
ADCC assays were performed as follows. Briefly, target cells (Raji or primary CLL) were labeled by incubation at 37° C. with 100 μCi ^51Cr for 4 hours prior to co-culture with NK cells. Cells were washed, enumerated, and then added in triplicate to prepared 96-well plates containing treated NK cells at an effector:target (E:T) ratio of 25:1. […] Cultures were incubated at 37° C. for 4 hours, and then centrifuged. Supernatants were harvested and ^51Cr release was measured by liquid scintillation counting. All experiments were performed in triplicate.

NK cells [3] = assay: Whole blood NK cell degranulation with obinutuzumab-opsonised MEC-1 cells; assay type: cell-based, human; conditions: 1 hour pretreatment (10, 1, 0.1 μM), MEC-1 opsonised with obinutuzumab 1 μg/mL, 4 hours, n=3
Description: Degranulation in whole blood was performed as follows. […] Exponentially growing cells were used. On the day of the experiment, 8 mL of blood was drawn from a normal volunteer into a test tube containing desirudin to obtain a final concentration of 50 μg/mL. A white blood cell (WBC) count of whole blood was performed. […] The ibrutinib control and two blinded BTK inhibitors were diluted in X-VIVO 15 serum-free hematopoietic cell medium (Lonza Group, Ltd.) to concentrations of 200 μM, 20 μM and 2 μM. 170 μL aliquots of unmanipulated whole blood were incubated with 10 μL BTK inhibitors or X-VIVO 15 medium for one hour into a plate. […] The samples were placed in a 5% CO2 incubator for 4 hours at 37° C.
After 4 hours, the samples were mixed gently and 50 μL aliquots were removed from each well and placed in fluorescence-activated cell sorting (FACS) test tubes. A 20 μL aliquot of anti-CD56-APC antibody and anti-CD107a-PE antibody was added. The samples were incubated for 20 minutes at room temperature in the dark. An aliquot of 2 mL of FACS lysing solution (BD Biosceinces) was added. The samples were again incubated for 5 minutes, and then centrifuged at 2000 rpm for 5 minutes. Supernatant was discarded and the cell pellet was resuspended in 500 μL of PBS. The samples were analyzed on the flow cytometer for CD107a^+ NK cells (CD56^+).

Th17 cells = assay: Th17 development from enriched CD4+ T cells; assay type: cell-based; conditions: anti-TCRβ plus anti-CD28, skewing cytokines, 4 days
Description: as §1

[4] = Glutathione binding and depletion in vitro; assay type: in vitro ADME
From the text: (§2) No unique human metabolite was identified. Preliminary evaluations of metabolism in the plasma, bile, and urine of rats, dogs, and monkeys indicated metabolic processes of oxidation, glutathione binding, and hydrolysis.

NK cells [5] = assay: Antibody-dependent NK cell-mediated IFN-γ release (ELISA); assay type: cell-based, human; conditions: 1 μM; trastuzumab-coated (10 μg/mL) HER18, 4 hours
Description: Cytokine secretion was determined as follows. […] NK cells from healthy donors were enriched as described above and then added to the target cells and incubated for 4 hours at 37° C. Triplicate cultures were performed on NK cells from donors. After incubation, supernatants were harvested, centrifuged briefly, and then analyzed for interferon-γ using an enzyme-linked immunosorbent assay (ELISA) (R&D Systems, Minneapolis, MN, USA).

human platelets = assay: Laser injury thrombus formation in VWF HA1 mice infused with human platelets; conditions: 0.1 μM, 0.5 μM, or 1 μM
Description: Injury to the vessel wall of arterioles ([…] diameter) was performed using a pulsed nitrogen dye laser (440 nm, Photonic Instruments) applied through a 20× water-immersion Olympus objective (LUMPlanF1, 0.5 numerical aperture (NA)) of a Zeiss Axiotech vario microscope. […] The extent of thrombus formation was assessed for 2 minutes after injury and the area (μm^2) of coverage determined (Image IQ, Andor Technology).
The BTK inhibitor-treated human platelets were fluorescently labeled and infused continuously through a catheter inserted into the femoral artery.

[6] = tested on: pancreatic cancer (KPC mice); assay: KPC pancreatic cancer model; assay type: in vivo
Description: The KPC mouse model recapitulates many of the molecular, histopathologic, and clinical features of human disease (Westphalen and Olive, Cancer J. 2012, 18, 502-510). Combination therapy with gemcitabine was also evaluated in this model. Mice were enrolled after identification of spontaneously appearing tumors in the pancreas that were ≥100 mm^3 (as assessed by high-resolution ultrasonography).

CD8+ T cells = assay: CD8+ T cell viability; assay type: cell-based; conditions: anti-TCR and anti-CD28 coated wells, neutral conditions, 4 days
Description: Total T cells were plated on anti-TCR and anti-CD28 coated wells in the presence of both BTK inhibitors. Neutral culture conditions were used that will not polarize T cells to a helper lineage. […] Statistical significance was calculated using the Mann Whitney T-test.

CYP3A4 = CYP3A4 (Homo sapiens, UniProt P08684); assay: Loss of parent drug as catalyzed by CYPs; assay type: in vitro ADME; conditions: in vitro
From the text: as §2

[7] = Formula (2) 15 mg/kg BID orally

CYP3A4, sequence (P08684 whole entry): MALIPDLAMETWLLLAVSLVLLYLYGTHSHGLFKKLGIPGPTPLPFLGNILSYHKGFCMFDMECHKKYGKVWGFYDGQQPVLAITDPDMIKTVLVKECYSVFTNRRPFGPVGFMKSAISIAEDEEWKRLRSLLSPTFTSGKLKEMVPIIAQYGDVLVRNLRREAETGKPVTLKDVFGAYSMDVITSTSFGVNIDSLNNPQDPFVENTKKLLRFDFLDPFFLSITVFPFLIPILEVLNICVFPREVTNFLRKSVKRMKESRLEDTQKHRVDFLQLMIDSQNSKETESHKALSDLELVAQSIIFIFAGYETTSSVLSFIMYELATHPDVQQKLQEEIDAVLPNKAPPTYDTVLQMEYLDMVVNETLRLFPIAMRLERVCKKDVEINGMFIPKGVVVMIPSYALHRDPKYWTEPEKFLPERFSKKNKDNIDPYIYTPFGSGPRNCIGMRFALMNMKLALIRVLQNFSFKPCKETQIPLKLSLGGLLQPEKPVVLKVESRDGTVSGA

CC#CC(=O)N1CCC[C@H]1c1nc(-c2ccc(C(=O)Nc3ccccn3)cc2)c2c(N)nccn12 [Formula (2), (S)-4-(8-amino-3-(1-(but-2-ynoyl)pyrrolidin-2-yl)imidazo[1,5-α]pyrazin-1-yl)-N-(pyridin-2-yl)benzamide]
effect on Treg development (regulatory T cell (Treg)): no adverse effect | CD8+ T cells (ID8 ovarian cancer): increase | immunosuppressive tumor associated Tregs (ID8 ovarian cancer): significant reduction | B regulatory cells (Bregs) (ID8 ovarian cancer; tumor-bearing mice): significant reduction | immunosuppressive tumor associated lymphocytes (ID8 ovarian cancer; tumor-bearing mice): significant reduction | total B cells (ID8 ovarian cancer; tumor-bearing mice): significant reduction | ID8 ovarian cancer growth (ID8 ovarian cancer; versus vehicle): impairs | tumor burden [1]: reduction in tumor burden | inhibition of trastuzumab-stimulated NK cell degranulation (NK cells [2]; 1 μM, trastuzumab-coated (10 μg/mL) HER18, 4 hours): no inhibitory effect | reduction of rituximab-stimulated NK cell degranulation (NK cells [2]; rituximab-coated (10 μg/mL) DHL-4, 4 hours): < 2% | effect on rituximab-mediated ADCC, primary CLL / autologous tumor cells (primary CLL cells): not inhibited | reduction of obinutuzumab-stimulated NK cell degranulation (CD56+/CD107a+ NK cells) (NK cells [3]): minimal effect | effect on Th17 cells / Th17 development (Th17 cells): no adverse effect | glutathione binding and depletion [4]: binds to glutathione but does not deplete glutathione | inhibition of trastuzumab-stimulated NK cell cytokine release (NK cells [5]): no inhibitory effect | effect on human platelet-mediated thrombus formation (human platelets): does not interfere with thrombus formation; also recorded: no significant effect | CD8+ cells in tumor tissues [6, 7]: significant increase | immunosuppressive MDSCs (Gr1+Ly6CHi) in tumor tissues [6, 7]: significantly reduced | immunosuppressive TAMs (CD11b+Ly6ClowF4/80+Csf1r+) in tumor tissues [6, 7]: significantly reduced | immunosuppressive Tregs (CD4+CD25+FoxP3+) in tumor tissues [6, 7]: significantly reduced | survival at day 14 [6, 7]: 6/6 | survival at day 28 [6, 7]: 5/6 | tumor volume, day 28 average ([6]; Formula (2) 15 mg/kg BID orally (N=6), day 28): 272 mm^3 | tumor volume, predose average ([6]; cohort treated with Formula (2) 15 mg/kg BID orally (N=6), predose): 165 mm^3 | effect on CD8+ T cell viability (CD8+ T cells): not observed; also recorded: no effect | metabolism by CYPs (CYP3A4): metabolized by CYP3A4
